Experiments:
Conditions in all cases: 10 mM Tris-HCl, pH 7.4
[1] = tested on: DNA aptamer or structured DNA CTTACGACTAGTTCTGAGGAATCAACGTCGGTGTAGTTGTCGTAAG
[2] = tested on: DNA aptamer or structured DNA CTTACGACGGGTTCAGAGGGTCAACGGTGGTGTTGTCGTCGTAAG
[3] = tested on: DNA aptamer or structured DNA CTTACGACAAGGGATGTTTGTTAGTGTGTCGGTGCATTGTCGTAAG
[4] = tested on: DNA aptamer or structured DNA CTTACGACTTACTTTTGGGTTGTCTGGGTGGGAGGTATGTCGTAAG
[5] = tested on: DNA aptamer or structured DNA GGGACGACCAGGATTCGGTTCTTTGTAAATAGTGCCTCGTTGGTCGTCCC
[6] = tested on: DNA aptamer or structured DNA GGGACGACTAGTGCCTTCGTGTTGTTCAGGAATCCGGTTCTGTCGTCCC
[7] = tested on: DNA aptamer or structured DNA GGGACGACTAGTGCCTTCGTGTTGTTCGGGAATCCGGTTCTGTCGTCCC
[8] = tested on: DNA aptamer or structured DNA CTTACGACGACCTATTGGGGGTAGTTATAGTTGGGTGAGTCGTAAG
[9] = tested on: DNA aptamer or structured DNA GGGACGACAGGGATTCGGTTCTCGATAAGTAGTGCCTCGTACGTCGTCCC
[10] = tested on: DNA aptamer or structured DNA GGGACGACTAGTGCCTTCGCGTTGTACGGGAATCCGGTTCTGTCGTCCC
[11] = tested on: DNA aptamer or structured DNA TTCAAATCTGCGGCGACTAATTCTTAGTGGTGGTTGCAATGCGCTGGGATGAGTCTAGATTTGAA
[12] = tested on: DNA aptamer or structured DNA GGGACGACGCACTATGGCTAGGGTTGGTACGGTCGTGAACCGCGGGGTGTCGTCCC
[13] = tested on: DNA aptamer or structured DNA GGGACGACCGGCTGTCTGGATGCATTGCGCCGGGAACTCGGACGGATGGTCGTCCC
[14] = tested on: DNA aptamer or structured DNA GGGACGACTAGTGCCTTCGCGCTGTGCGGGAATCCGGTTCTGTCGTCCC
[15] = tested on: DNA aptamer or structured DNA GGGACGACGCCGGCTTCTAGGGGGGGTGTGGGTGGCGAGTCGTCCC
[16] = tested on: DNA aptamer or structured DNA GGGACGACTAGTGCCTTCGCGTTGTTCGGGAATCCGGTTCTGTCGTCCC
[17] = tested on: DNA aptamer or structured DNA GGGACGACTGCTTGGGTAGGTCGGGTTTGGGTGCGGCGGTCGTCCC
[18] = tested on: DNA aptamer or structured DNA GGGACGACGGGGGGAGTAATGTTTGTGTGGGGGAGCCGGTCGTCCC
[19] = tested on: DNA aptamer or structured DNA GGGACGACGCGCATGTGGTGTCGGTCAGATGGGATGAAGTCGTCCC
[20] = tested on: DNA aptamer or structured DNA GGGACGACCCGTAGGGGTACACGCTCTATAGGGGCTGGGTCGTCCC
[21] = tested on: DNA aptamer or structured DNA GGGACGACAGCTTGGTTTGGTCGGGGTAGGGTTCGGATGTCGTCCC
[22] = tested on: DNA aptamer or structured DNA GGGACGACATCGTAGGGGCACACGCTTAACGGGCTGATGTCGTCCC
[23] = tested on: DNA aptamer or structured DNA GGGACGACTAGCCCGGCGTTGTTCGAGTGCAGCGAGTAGTCGTCCC
[24] = tested on: DNA aptamer or structured DNA GGGACGACCGGACTTGGGTGGGTGCTGGGGCTTGGGCGGTCGTCCC
[25] = tested on: DNA aptamer or structured DNA GGGACGACAAGTCAGGCCTGTCTCAGCGAGTTCGACATGTCGTCCC
[26] = tested on: DNA aptamer or structured DNA GGGACGACGCGTAGGTTCCCTAGCTGTGCGTCGTTCAAGTCGTCCC
[27] = tested on: DNA aptamer or structured DNA GGGACGACGCGTAGGTCTCCTAGCTGTGCGTCGTTCAAGTCGTCCC
[28] = tested on: DNA aptamer or structured DNA GGGACGACTAGCCGTGGCGTTGTTCGAGTGCAGCGAGTAGTCGTCCC
[29] = tested on: DNA aptamer or structured DNA GGGACGACTAGCCGCGCGTTGTCCGACCCTTGGAAGTAGTCGTCCC
[30] = tested on: DNA aptamer or structured DNA GGGACGACGGGAAGGTTGGCAGCGCATCGTCGGGTCACGTCGTCCC
[31] = tested on: DNA aptamer or structured DNA TTCAAATCTGGTGCCCTTTCGCAGTCGGTTGGTAATGAGACCACTTTAGAGTCTAGATTTGAA
[32] = tested on: DNA aptamer or structured DNA GGGACGACGGTTGGCATTGGGTCGGGTGTGGGTGCGGCGTCGTCCC
[33] = tested on: DNA aptamer or structured DNA GGGACGACGGCACGAGGTTATTCGTTGGTTGCACTGCGCTGGGAGGCAGTCGTCCC
[34] = tested on: DNA aptamer or structured DNA GGGACGACGGGGATTCGGTTCGTCATTTGGCAGTGCCTCGTCTGTCGTCCC
[35] = tested on: DNA aptamer or structured DNA CTTACGACCATGGGTGTTTGCACTAAGTCCGGTTCTTGGTCGTAAG
Throughout, for binding call: call rule not given here.

| SMILES | binding call [1] | binding call [2] | binding call [3] | binding call [4] | binding call [8] | binding call [11] | binding call [14] | binding call [15] | binding call [18] | binding call [19] | binding call [20] | binding call [21] | binding call [22] | binding call [25] | binding call [27] | binding call [28] | binding call [32] | also measured |
| --- | --- | --- | --- | --- | --- | --- | --- | --- | --- | --- | --- | --- | --- | --- | --- | --- | --- | --- |
| CN1C2CCC1[C@@H](C(=O)O)[C@@H](OC(=O)c1ccccc1)C2 (some centres undefined) | no binding | binds | no binding | no binding |  |  |  |  |  |  |  |  |  |  |  |  |  |  |
| NCCc1c[nH]c2ccc(O)cc12 | no binding | no binding | no binding | no binding | no binding | no binding | binds | no binding |  |  |  |  |  |  |  |  |  | binding call [5]: no binding; binding call [6]: no binding; binding call [7]: no binding; binding call [9]: no binding; binding call [10]: no binding; binding call [12]: no binding; binding call [13]: no binding; binding call [16]: binds |
| Cc1nnc2n1-c1ccc(Cl)cc1C(c1ccccc1)=NC2 |  | no binding |  | no binding |  | no binding |  |  | no binding | binds | no binding | no binding | no binding |  |  |  |  | binding call [17]: no binding |
| Cn1c(=O)c2c(ncn2C)n(C)c1=O |  |  |  |  |  | no binding |  |  | no binding | binds | binds |  | no binding | binds |  |  |  | binding call [23]: no binding; binding call [24]: binds; binding call [26]: no binding |
| OC[C@@H](O)[C@@H](O)[C@H](O)[C@H](O)CO |  |  | no binding |  |  |  |  |  | no binding |  | no binding |  |  |  | no binding |  |  |  |
| c1ccc([C@H]2CN3CCSC3=N2)cc1 | no binding | no binding |  |  | no binding |  |  |  | no binding | no binding | no binding |  | no binding | no binding | no binding | no binding |  | binding call [23]: no binding; binding call [29]: no binding; binding call [26]: binds |
| CCCC(C(=O)c1ccc2c(c1)OCO2)N1CCCC1 (centres undefined) |  |  | no binding | no binding |  | no binding |  |  |  |  |  |  |  |  |  |  |  | binding call [12]: no binding |
| CCN(CC)CCOC(=O)c1ccc(N)cc1 | no binding |  | no binding |  |  |  | no binding | no binding | no binding |  |  | binds | no binding |  |  |  | binds | binding call [30]: no binding; binding call [24]: no binding; binding call [31]: no binding; binding call [17]: binds; binding call [5]: no binding; binding call [6]: no binding; binding call [7]: no binding; binding call [9]: no binding; binding call [10]: no binding; binding call [33]: no binding; binding call [34]: no binding; binding call [16]: binds |
| COc1ccc2c3c1O[C@H]1C(=O)CC[C@@]4(O)[C@@H](C2)N(C)CC[C@]314 | no binding |  |  | no binding |  |  |  | binds |  |  |  |  |  |  |  |  | no binding | Kd [24]: 1690 nM; Kd [18]: 1190 nM; Kd [19]: 3700 nM; Kd [25]: 450 nM; Kd [20]: 410 nM; Kd [22]: 1420 nM |
| COC(=O)[C@@H]1C2CCC(C[C@@H]1OC(=O)c1ccccc1)N2C (some centres undefined) |  |  |  |  |  |  | no binding | no binding | no binding |  |  | binds |  |  | no binding | no binding | binds | Kd [1]: 33 nM; binding call [17]: no binding; Kd [8]: 353 nM; binding call [35]: no binding; Kd [2]: 49 nM; Kd [3]: 357 nM; Kd [4]: 249 nM |
| CN1C(=O)CN=C(c2ccccc2)c2cc(Cl)ccc21 |  | no binding |  | no binding |  |  |  |  | no binding | binds |  |  | no binding | no binding |  | no binding |  | binding call [30]: no binding |
| CN[C@@H](C)Cc1ccccc1 |  |  |  | no binding | no binding |  |  | no binding |  | no binding | no binding | no binding |  | no binding | no binding | no binding | no binding | binding call [23]: no binding; binding call [24]: no binding; Kd [31]: 4440 nM; Kd [11]: 5670 nM; binding call [35]: no binding; Kd [12]: 12400 nM; Kd [13]: 8900 nM; Kd [33]: 7000 nM; Kd [14]: 7500 nM; binding call [26]: no binding; Kd [16]: 5100 nM |
| NCCc1ccc(O)c(O)c1 | no binding | no binding | binds | no binding | no binding |  | no binding |  |  |  |  |  |  |  |  |  |  | binding call [31]: binds; binding call [5]: binds; binding call [6]: binds; binding call [7]: no binding; binding call [9]: no binding; binding call [10]: no binding; binding call [12]: binds; binding call [13]: binds; binding call [33]: binds; binding call [34]: no binding; binding call [16]: binds |

From the AptaBench aptamer set (doi:10.1093/nar/gkaf219)
